Target: recombinant IL4I1 (Homo sapiens (Human), UniProt Q96RQ9)
Experiment: IL4I1 Enzymatic Assay (Amplex Red/HRP coupled fluorescence detection of H2O2)
Format: biochemical
Conditions: 240 min; recombinant IL4I1, four-hour pre-incubation with compound
Procedure: Interleukin 4 inducible protein 1 (IL4I1) is an L-amino oxidase that catalyzes the oxidation of aromatic residues (Phe, Trp and Tyr): L-amino acid+H2O+O2→2-oxo acid+NH3+H2O2. Equal molar of H2O2 and the corresponding alpha-ketoacid are produced when IL4I1 and substrate are added. In this assay, the hydrogen peroxide generated by IL4I1 is then detected through a coupled reaction with Amplex® Red (10-acetyl-3,7-dihydroxyphenoxazine) and horseradish peroxidase (HRP) to produce resorufin product that could be detected in the form of fluorescence signals. The assessment of the inhibitory effect of small molecules (EC50) on IL4I1 is measured by the effectiveness of the compounds to inhibit the production of H2O2.
Using this assay, the potency (EC50) of each compound was determined from a ten-point (1:3 serial dilution) titration curve using the following outlined procedure. To each well of a black flat-bottom Greiner (Cat #781076) 384 well-plate, 25 nL of compound (0.1% DMSO in final assay volume of 25 μL) was dispensed, followed by the addition of 12.5 μL of 1× assay buffer (50 mM Hepes 7.0 and 0.005% Tween20 (Sigma, Cat #P8341; low peroxide grade)) containing 2 nM of recombinant IL4I1 (R&D Systems, Cat #5684-AO-020). Plates were placed in an ambient temperature humidified chamber for a four-hour pre-incubation with compound. Subsequently, each reaction was initiated by the addition of 12.5 μL 1× assay buffer containing 2 mM of each aromatic amino acids (Phe/Tyr/Trp), 0.1 mM Amplex Red and 2 U/mL of HRP. The final reaction in each well of 25 μL consisted of 1 nM of IL4I1, 1 mM of each residues (Phe, Tyr and Trp), 0.05 mM Amplex Red and 1 U/mL of HRP. It should be noted that the concentrations of Amplex Red and HRP used here were in excess such that the conversion of H2O2 to resorufin product occurred instantaneously and was non-rate limiting. Reactions were allowed to proceed for 120 minutes followed by fluorescence readout on a Spectramax with the following set parameters: 544 nm excitation/590 nm emission, 570 nm cutoff (EnVision is an alternative reader). Dose-response curves were generated by plotting percent effect (% product conversion; Y-axis) vs. Log10 compound concentrations (X-axis). EC50 values were calculated using a non-linear regression, four-parameters sigmoidal dose-response model and are shown in Potency Table 1.

Sequence of recombinant IL4I1 (Q96RQ9 22-567): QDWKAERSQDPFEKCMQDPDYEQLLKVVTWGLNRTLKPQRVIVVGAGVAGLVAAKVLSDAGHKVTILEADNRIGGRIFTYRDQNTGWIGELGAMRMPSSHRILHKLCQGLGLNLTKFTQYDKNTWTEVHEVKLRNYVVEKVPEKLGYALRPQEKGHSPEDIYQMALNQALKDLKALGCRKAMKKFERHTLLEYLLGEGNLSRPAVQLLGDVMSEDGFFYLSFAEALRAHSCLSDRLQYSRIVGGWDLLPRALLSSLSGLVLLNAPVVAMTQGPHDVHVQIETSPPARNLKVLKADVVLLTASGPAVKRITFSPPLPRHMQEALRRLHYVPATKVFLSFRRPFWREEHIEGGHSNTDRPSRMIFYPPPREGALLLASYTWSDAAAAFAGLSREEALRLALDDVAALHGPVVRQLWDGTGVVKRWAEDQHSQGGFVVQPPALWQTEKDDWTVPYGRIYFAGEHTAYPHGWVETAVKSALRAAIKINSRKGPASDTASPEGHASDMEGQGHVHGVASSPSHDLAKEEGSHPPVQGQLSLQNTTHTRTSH

| SMILES | EC50 [nM] |
| --- | --- |
| CC(c1ncc(-c2ccccc2)cn1)N1CCN(C2CCCC2)C(=O)C1=O (single isomer, unassigned) [Example 133, (R or S)-1-cyclopentyl-4-(1-(5-phenylpyrimidin-2-yl)ethyl)piperazine-2,3-dione] | 22 |
| CC(c1ncc(-c2ccccc2)cn1)N1CCN(C2CCC2)C(=O)C1=O (single isomer, unassigned) [Example 134, (R or S)-1-cyclobutyl-4-(1-(5-phenylpyrimidin-2-yl)ethyl)piperazine-2,3-dione] | 40 |
| O=C1C(=O)N2CCCCC2CN1Cc1nnc(-c2ccccc2)s1 (single isomer, unassigned) [Example 180, (R or S)-2-((5-phenyl-1,3,4-thiadiazol-2-yl)methyl)hexahydro-2H-pyrido[1,2-a]pyrazine-3,4-dione] | 97 |
| CC1CN(Cc2ncc(-c3ccccc3)cn2)C(=O)C(=O)N1C1CCCC1 (single isomer, unassigned) [Example 341, (R or S)-4-cyclopentyl-5-methyl-1-((5-phenylpyrimidin-2-yl)methyl)piperazine-2,3-dione] | 19 |
| CC1CCC(N2CCN(Cc3ncc(-c4ccccc4)cn3)C(=O)C2=O)C1 (single isomer, unassigned) [Example 344, (R or S, R or S)-1-(3-methylcyclopentyl)-4-((5-phenylpyrimidin-2-yl)methyl)piperazine-2,3-dione] | 49 |
| O=C1C(=O)N(C2CCC2)C2CCCC2N1Cc1ccc(-c2ccccc2)nn1 (single isomer, unassigned) [Example 435B, (S,R or S,R)-1-cyclobutyl-4-((6-phenylpyridazin-3-yl)methyl)hexahydro-1H-cyclopenta[b]pyrazine-2,3-dione] | 76 |
| CC1CN(C2CCC2)C(=O)C(=O)N1Cc1nnc(-c2ccccc2)s1 (single isomer, unassigned) [Example 437, (R or S)-1-cyclobutyl-5-methyl-4-((5-phenyl-1,3,4-thiadiazol-2-yl)methyl)piperazine-2,3-dione] | 34 |
| O=C1C(=O)N(C2CC[C@H](O)C2)CCN1Cc1nnc(-c2ccccc2)s1 (single isomer, unassigned) [Example 438, (R,S or S,R)-1-(3-hydroxycyclopentyl)-4-((5-phenyl-1,3,4-thiadiazol-2-yl)methyl)piperazine-2,3-dione] | 40 |
| O=C1C(=O)N([C@@H]2CC[C@@H](c3ccccc3)C2)CCN1Cc1nnc(-c2ccccc2)s1 (single isomer, unassigned) [Example 440A, (R or S, R or S)-1-((5-phenyl-1,3,4-thiadiazol-2-yl)methyl)-4-(3-phenylcyclopentyl)piperazine-2,3-dione] | 5 |
| O=C1C(=O)N([C@@H]2CC[C@@H](c3ccccc3)C2)CCN1Cc1nnc(-c2ccccc2)s1 (single isomer, unassigned) [Example 440B, (R or S, R or S)-1-((5-phenyl-1,3,4-thiadiazol-2-yl)methyl)-4-(3-phenylcyclopentyl)piperazine-2,3-dione] | 6 |
| O=C1C(=O)N(C23CC(C2)C3)CCN1Cc1nnc(-c2cccc(F)c2)s1 [Example 2, 1-(bicyclo[1.1.1]pentan-1-yl)-4-((5-(3-fluorophenyl)-1,3,4-thiadiazol-2-yl)methyl)piperazine-2,3-dione] | 9 |
| O=C1C(=O)N(C2CCCC2)CCN1Cc1ccc(-c2ccccc2)nn1 [Example 3, 1-cyclopentyl-4-((6-phenylpyridazin-3-yl)methyl)piperazine-2,3-dione] | 12 |
| O=C1C(=O)N(C2CCCC2)CCN1Cc1ncc(-c2cncs2)cn1 [Example 5, 1-cyclopentyl-4-((5-(thiazol-5-yl)pyrimidin-2-yl)methyl)piperazine-2,3-dione] | 50 |
| O=C1C(=O)N(C2CC(c3ccccc3)C2)CCN1Cc1ccc(-c2ccccc2)nn1 (centres unmarked) [Example 7, 1-(3-phenylcyclobutyl)-4-((6-phenylpyridazin-3-yl)methyl)piperazine-2,3-dione] | 9 |
| O=C1C(=O)N(C2CCCC2)CCN1Cc1ccc(-c2cncs2)nn1 [Example 11, 1-cyclopentyl-4-((6-(thiazol-5-yl)pyridazin-3-yl)methyl)piperazine-2,3-dione] | 16 |
| O=C1C(=O)N(C2CCC2)CCN1Cc1ccc(-c2ccccc2)nn1 [Example 12, 1-cyclobutyl-4-((6-phenylpyridazin-3-yl)methyl)piperazine-2,3-dione] | 8 |
| O=C1C(=O)N(C2CCCC2)CCN1Cc1nnc(-c2ccccc2F)s1 [Example 13, 1-cyclopentyl-4-((5-(2-fluorophenyl)-1,3,4-thiadiazol-2-yl)methyl)piperazine-2,3-dione] | 8 |
| O=C1C(=O)N(C2CCCC2)CCN1Cc1ccc(-c2cn[nH]c2)nn1 [Example 15, 1-((6-(1H-pyrazol-4-yl)pyridazin-3-yl)methyl)-4-cyclopentylpiperazine-2,3-dione] | 44 |
| O=C1C(=O)N(C2CCCC2)CCN1Cc1ncc(-c2cn[nH]c2)cc1F [Example 16, 1-cyclopentyl-4-((3-fluoro-5-(1H-pyrazol-4-yl)pyridin-2-yl)methyl)piperazine-2,3-dione] | 16 |

The remaining molecules from weak to strong by EC50, led by results:

| EC50 [nM] | SMILES |
| --- | --- |
| 85 | O=C1C(=O)N(C2CCC2)[C@H]2CCC[C@@H]2N1Cc1ccc(-c2ccccc2)nn1 (single isomer, unassigned) [Example 435A, (S,S or R,R)-1-cyclobutyl-4-((6-phenylpyridazin-3-yl)methyl)hexahydro-1H-cyclopenta[b]pyrazine-2,3-dione] |
| 43 | O=C1C(=O)N(C2CCCC2)CCN1Cc1ccc(-c2cnco2)nn1 [Example 6, 1-cyclopentyl-4-((6-(oxazol-5-yl)pyridazin-3-yl)methyl)piperazine-2,3-dione] |
| 21 | O=C1C(=O)N(C2CCCC2)CCN1Cc1ncc(-c2cncs2)cc1F [Example 10, 1-cyclopentyl-4-((3-fluoro-5-(thiazol-5-yl)pyridin-2-yl)methyl)piperazine-2,3-dione] |
| 19 | O=C1C(=O)N(C2CCCC2)CCN1Cc1ncc(-c2ccccc2)cn1 [Example 4, 1-cyclopentyl-4-((5-phenylpyrimidin-2-yl)methyl)piperazine-2,3-dione] |
| 15 | O=C1C(=O)N(C2CCCC2)CCN1Cc1ccc(-c2ccccc2F)nn1 [Example 9, 1-cyclopentyl-4-((6-(2-fluorophenyl)pyridazin-3-yl)methyl)piperazine-2,3-dione] |
| 14 | O=C1C(=O)N2CCCCC2CN1Cc1nnc(-c2ccccc2)s1 (single isomer, unassigned) [Example 182, (R or S)-2-((5-phenyl-1,3,4-thiadiazol-2-yl)methyl)hexahydro-2H-pyrido[1,2-a]pyrazine-3,4-dione] |
| 12 | CC(c1ccc(-c2ccccc2)nc1)N1CCN(C2CCCC2)C(=O)C1=O (single isomer, unassigned) [Example 99, (R or S)-1-cyclopentyl-4-(1-(6-phenylpyridin-3-yl)ethyl)piperazine-2,3-dione] |
| 10 | O=C1C(=O)N([C@@H]2CC[C@@H](c3ccccc3)C2)CCN1Cc1nnc(-c2ccccc2)s1 (single isomer, unassigned) [Example 440C, (R or S, R or S)-1-((5-phenyl-1,3,4-thiadiazol-2-yl)methyl)-4-(3-phenylcyclopentyl)piperazine-2,3-dione] |
| 10 | O=C1C(=O)N(C2CCC2)CCN1Cc1ccc(-c2ccccc2F)nn1 [Example 1, 1-cyclobutyl-4-((6-(2-fluorophenyl)pyridazin-3-yl)methyl)piperazine-2,3-dione] |
| 8 | O=C1C(=O)N([C@@H]2CC[C@@H](c3ccccc3)C2)CCN1Cc1nnc(-c2ccccc2)s1 (single isomer, unassigned) [Example 440D, (R or S, R or S)-1-((5-phenyl-1,3,4-thiadiazol-2-yl)methyl)-4-(3-phenylcyclopentyl)piperazine-2,3-dione] |
| 7 | O=C1C(=O)N(C2CCCC2)CCN1Cc1nnc(-c2cccc(F)c2)s1 [Example 8, 1-cyclopentyl-4-((5-(3-fluorophenyl)-1,3,4-thiadiazol-2-yl)methyl)piperazine-2,3-dione] |
| 7 | O=C1C(=O)N(C2CCCC2)CCN1Cc1ccc(-c2cncs2)nc1 [Example 17, 1-cyclopentyl-4-((6-(thiazol-5-yl)pyridin-3-yl)methyl)piperazine-2,3-dione] |
| 6 | O=C1C(=O)N(C2CCCC2)CCN1Cc1ccc(-c2cccc(F)c2)nn1 [Example 14, 1-cyclopentyl-4-((6-(3-fluorophenyl)pyridazin-3-yl)methyl)piperazine-2,3-dione] |
